Assay results taken from patent publication US5677309A (priority 1996, dated 1997).
Counter-ions that a name gives are not always drawn.

Target: GABAa receptor (benzodiazepines (BDZ) receptor)
Assay: GABAa receptor (benzodiazepine receptor) binding assay, 3H-RO15-1788 [3H-Flumazenil] displacement in rat cortical tissue
Details: 0.5 nM 3H-RO15-1788, 30 min at 4° C., pH 7.4

| Compound | Ki |
| --- | --- |
| O=c1[nH]c2ccccc2c2nn(-c3ccccc3)c(=O)n12 [Compound 1, 2-phenyl-5,6-dihydro-5-oxo-[6H]-1,2,4-triazolo[4,3-c]quinazolin-3-one] | 5.9 nM |
| O=c1n(-c2ccccc2)nc2n1CNc1ccccc1-2 [Compound 2, 2-phenyl-5,6-dihydro-1,2,4-triazolo[4,3-c]quinazolin-3-one] | 12 nM |
| O=c1[nH]c2ccccc2c2nn(-c3ccccn3)c(=O)n12 [Compound 5, 2-(2-Pyridyl)-5,6-dihydro-5-oxo-[6H]-1,2,4-triazolo[4,3-c]quinazolin-3-one] | 7.6 nM |
| O=c1n(-c2ccccn2)nc2n1CNc1ccccc1-2 [Compound 13, 2-(2-Pyridyl)-5,6-dihydro-1,2,4-triazolo[4,3-c]quinazolin-3-one] | 63 nM |
| CN(C)Cc1ccc(-n2nc3n(c2=O)CNc2ccccc2-3)cc1 [Compound 21, 2-[4-(N,N-dimethylaminomethyl)phenyl]-5,6-dihydro-1,2,4-triazolo-[4,3-c]quinazolin-3-one hydrochloride] | 53 nM |
| O=c1[nH]c2ccccc2c2nn(-c3ccccc3)c(=S)n12 [Compound 28, 2-phenyl-5,6-dihydro-5-oxo-6[H]-1,2,4-triazolo[4,3-c]quinazolin-3-thione] | 4.5 nM |
| S=c1n(-c2ccccc2)nc2n1CNc1ccccc1-2 [Compound 29, 2-phenyl-5,6-dihydro-1,2,4-triazolo[4,3-c]quinazolin-3-thione] | 636 nM |
| O=c1[nH]c2c(c3nn(-c4ccccc4)c(=O)n13)CCCC2 [Compound 30, 2-phenyl-5,6-dihydro-5-oxo-[6H]-7,8,9,10-tetrahydro-1,2,4-triazolo[4,3-c]-quinazolin-3-one] | 4.5 nM |
| O=c1n(-c2ccccc2)nc2n1CNC1=C2CCCC1 [Compound 31, 2-phenyl-5,6,7,8,9,10-hexahydro-1,2,4-triazolo[4,3-c]-quinazolin-3-one] | 8 nM |

System: benzodiazepine receptor
Assay: not given
Details: Hunkeler et al., 1981; cited from earlier work

| Compound | inhibition of benzodiazepine and beta-carboline binding |
| --- | --- |
| imidazo[1,5-a][1,4]benzodiazepine | high affinity competitive inhibitor |

System: benzodiazepine receptor
Assay: not given
Details: in animals and humans; by itself; cited from earlier work

| Compound | intrinsic pharmacological activity |
| --- | --- |
| imidazo[1,5-a][1,4]benzodiazepine | little intrinsic pharmacological activity |
